The source made the active and inactive calls. The calls are words filed in the database; no cut-off is given here.
Key:
MIA PaCa-2 [1] = test: Inhibition of ERK phosphorylation in human MIA PaCa-2 cells at 1 uM measured after 24 to 72 hrs in presence of AMG510 by Western blotting analysis; type: cell-based; settings: time 24-72 hrs
[2] = target: T1, von Hippel-Lindau disease tumor suppressor/Son of sevenless homolog 1 (Homo sapiens, UniProt Q07889+P40337); test: Protac activity at VHL/SOS1 in human MIA PaCa-2 cells assessed as SOS1 degradation at 1 uM preincubated with BI3406 for 2 hrs followed by compound addition and measured after 3 hrs by Western blotting analysis; type: cell-based
Target sequence in this assay (P40337 whole entry, looked up): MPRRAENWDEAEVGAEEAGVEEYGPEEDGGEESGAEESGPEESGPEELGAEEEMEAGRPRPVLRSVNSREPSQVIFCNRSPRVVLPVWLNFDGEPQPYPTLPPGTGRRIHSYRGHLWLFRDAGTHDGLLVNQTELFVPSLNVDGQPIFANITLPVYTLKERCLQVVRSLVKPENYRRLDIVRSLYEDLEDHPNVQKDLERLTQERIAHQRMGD
Target sequence in this assay (Q07889 whole entry, looked up): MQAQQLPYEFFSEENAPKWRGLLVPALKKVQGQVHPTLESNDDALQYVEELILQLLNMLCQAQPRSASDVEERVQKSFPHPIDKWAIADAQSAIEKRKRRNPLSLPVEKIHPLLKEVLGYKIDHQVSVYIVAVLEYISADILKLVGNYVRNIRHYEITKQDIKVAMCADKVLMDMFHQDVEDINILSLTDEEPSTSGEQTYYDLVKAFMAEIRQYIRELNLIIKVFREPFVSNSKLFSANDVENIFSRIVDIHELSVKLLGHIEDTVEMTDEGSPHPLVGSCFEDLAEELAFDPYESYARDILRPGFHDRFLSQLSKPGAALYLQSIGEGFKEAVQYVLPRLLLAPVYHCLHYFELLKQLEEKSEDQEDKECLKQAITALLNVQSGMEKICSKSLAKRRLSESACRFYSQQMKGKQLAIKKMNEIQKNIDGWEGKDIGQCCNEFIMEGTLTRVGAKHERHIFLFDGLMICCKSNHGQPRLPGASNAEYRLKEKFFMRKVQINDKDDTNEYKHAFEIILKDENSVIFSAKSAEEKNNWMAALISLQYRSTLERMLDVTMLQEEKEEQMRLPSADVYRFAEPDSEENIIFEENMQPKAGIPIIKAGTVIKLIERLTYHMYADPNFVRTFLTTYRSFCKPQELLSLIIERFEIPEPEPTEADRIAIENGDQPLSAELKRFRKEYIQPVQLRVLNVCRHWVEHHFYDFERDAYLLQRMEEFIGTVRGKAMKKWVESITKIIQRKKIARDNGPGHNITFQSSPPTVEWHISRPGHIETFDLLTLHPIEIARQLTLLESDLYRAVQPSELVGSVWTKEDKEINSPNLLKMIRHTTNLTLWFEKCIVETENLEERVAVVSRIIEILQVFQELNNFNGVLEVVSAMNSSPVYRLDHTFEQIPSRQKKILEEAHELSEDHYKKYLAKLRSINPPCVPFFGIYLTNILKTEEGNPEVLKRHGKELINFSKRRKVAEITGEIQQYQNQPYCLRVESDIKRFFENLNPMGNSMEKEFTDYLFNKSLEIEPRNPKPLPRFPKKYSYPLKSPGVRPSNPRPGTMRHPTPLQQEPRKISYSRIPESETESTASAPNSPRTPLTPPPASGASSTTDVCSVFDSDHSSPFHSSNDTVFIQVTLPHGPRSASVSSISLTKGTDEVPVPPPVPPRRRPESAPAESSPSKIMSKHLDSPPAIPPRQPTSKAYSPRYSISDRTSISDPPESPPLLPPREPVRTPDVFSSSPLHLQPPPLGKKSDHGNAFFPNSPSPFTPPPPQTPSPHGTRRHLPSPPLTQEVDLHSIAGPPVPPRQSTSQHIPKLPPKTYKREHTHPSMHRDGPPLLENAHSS

K562 [3] = test: Downregulation of phosphorylated-MEK level in human K562 cells at 0.3 to 3 uM incubated for 24 hrs by Western blotting analysis; type: functional, cell-based; settings: dose 0.3-3 µM
MIA PaCa-2 [4] = test: Antiproliferative activity against human MIA PaCa-2 cells incubated for 72 hrs by CCK8 assay; type: functional, cell-based; settings: MIA PaCa-2, 72 h
[5] = target: T1, von Hippel-Lindau disease tumor suppressor/Son of sevenless homolog 1; test: Protac activity at VHL/SOS1 in human MIA PaCa-2 cells assessed as SOS1 degradation incubated for 24 hrs by Western blotting analysis; type: cell-based
[6] = target: T1, von Hippel-Lindau disease tumor suppressor/Son of sevenless homolog 1; test: Protac activity at VHL/SOS1 in human NCI-H358 cells assessed as SOS1 degradation incubated for 24 hrs by Western blotting analysis; type: cell-based
NCI-H358 [7] = test: Synergistic antiproliferative activity against human NCI-H358 cells assessed as combination index incubated for 5 days in presence of 4-((S)-4-acryloyl-2-methylpiperazin-1-yl)-6-fluoro-7-(2-fluoro-6-hydroxyphenyl)-1-(2-isopropyl-4-methylpyridin-3-yl)pyrido[2,3-d]pyrimidin-2(1H)-one; type: functional; settings: time 5 day
K562 [8] = test: Effect on total MEK level in human K562 cells at 0.3 to 3 uM incubated for 24 hrs by Western blotting analysis; type: functional, cell-based; settings: dose 0.3-3 µM
[9] = target: T1, von Hippel-Lindau disease tumor suppressor/Son of sevenless homolog 1; test: Protac activity at VHL/SOS1 in human NCI-H358 cells assessed as maximum SOS1 degradation at 0.003 to 10 uM incubated for 24 hrs by Western blotting analysis; type: cell-based; settings: dose 0.003-10 µM
Target sequence in this assay (P40337 whole entry, looked up): as the sequence (P40337 whole entry, looked up) above
Target sequence in this assay (Q07889 whole entry, looked up): as the sequence (Q07889 whole entry, looked up) above

NCI-H358 [10] = test: Antitumor activity against human NCI-H358 cells xenografted in BALB/c mouse assessed as tumor growth inhibition at 30 mg/kg, ip administered once daily for 28 days in presence of 10 mg/kg 4-((S)-4-acryloyl-2-methylpiperazin-1-yl)-6-fluoro-7-(2-fluoro-6-hydroxyphenyl)-1-(2-isopropyl-4-methylpyridin-3-yl)pyrido[2,3-d]pyrimidin-2(1H)-one; type: functional; settings: NCI-H358, 672 h, time 28 day, read-out: TGI
NCI-H358 [11] = test: Inhibition of colony formation in human NCI-H358 cells at 1 to 9 uM incubated for 10 days by crystal violet staining based assay; type: functional, cell-based; settings: dose 1-9 µM, time 10.0 day
[12] = target: T1, von Hippel-Lindau disease tumor suppressor/Son of sevenless homolog 1; test: Protac activity at VHL/SOS1 in human MIA PaCa-2 cells assessed as SOS1 degradation at 1 uM preincubated with VHL ligand V1 for 2 hrs followed by compound addition and measured after 3 hrs by Western blotting analysis; type: cell-based
Target sequence in this assay (P40337 whole entry, looked up): as the sequence (P40337 whole entry, looked up) above
Target sequence in this assay (Q07889 whole entry, looked up): as the sequence (Q07889 whole entry, looked up) above

[13] = target: T1, von Hippel-Lindau disease tumor suppressor/Son of sevenless homolog 1; test: Protac activity at VHL/SOS1 in human K562 cells assessed as SOS1 degradation at 1 uM by Western blotting analysis relative to control; type: cell-based
Target sequence in this assay (P40337 whole entry, looked up): as the sequence (P40337 whole entry, looked up) above
Target sequence in this assay (Q07889 whole entry, looked up): as the sequence (Q07889 whole entry, looked up) above

[14] = target: T1, von Hippel-Lindau disease tumor suppressor/Son of sevenless homolog 1; test: Protac activity at VHL/SOS1 in human K562 cells assessed as SOS1 degradation incubated for 24 hrs by Western blotting analysis; type: cell-based
NCI-H358 [15] = test: Antitumor activity against human NCI-H358 cells xenografted in BALB/c mouse assessed as tumor growth inhibition at 30 mg/kg, ip administered once daily for 28 days; type: functional; settings: NCI-H358, 672 h, time 28 day, read-out: TGI
K562 [16] = test: Antitumor activity against human K562 cells xenografted in NOD-SCID mouse assessed as tumor growth inhibition at 5 mg/kg, ip administered as 5 days on and 2 days off schedule for 21 days; type: functional; settings: K562, 120 h, time 5 day, read-out: TGI
SW837 = test: Inhibition of ERK phosphorylation in human SW837 cells at 1 uM measured after 24 to 72 hrs in presence of AMG510 by Western blotting analysis; type: cell-based; settings: time 24-72 hrs
[17] = target: T1, von Hippel-Lindau disease tumor suppressor/Son of sevenless homolog 1; test: Protac activity at VHL/SOS1 in human PANC-1 cells assessed as SOS1 degradation at 1 uM incubated for 96 hrs by Western blotting analysis; type: cell-based
Target sequence in this assay (P40337 whole entry, looked up): as the sequence (P40337 whole entry, looked up) above
Target sequence in this assay (Q07889 whole entry, looked up): as the sequence (Q07889 whole entry, looked up) above

K562 [18] = test: Potency index, ratio of BI3406 IC50 to test compound IC50 for antiproliferative activity against human K562 cells incubated for 72 hrs by CCK8 assay; type: functional
K562 [19] = test: Antiproliferative activity against human K562 cells incubated for 72 hrs by CCK8 assay; type: functional, cell-based; settings: K562, 72 h
[20] = target: T1, von Hippel-Lindau disease tumor suppressor/Son of sevenless homolog 1; test: Protac activity at VHL/SOS1 in human K562 cells assessed as maximum SOS1 degradation at 0.003 to 10 uM incubated for 24 hrs by Western blotting analysis; type: cell-based; settings: dose 0.003-10 µM
Target sequence in this assay (P40337 whole entry, looked up): as the sequence (P40337 whole entry, looked up) above
Target sequence in this assay (Q07889 whole entry, looked up): as the sequence (Q07889 whole entry, looked up) above

MIA PaCa-2 [21] = test: Induction of apoptosis in human MIA PaCa-2 cells assessed as increase in cleaved PARP-1 level incubated for 24 hrs in presence of 4-((S)-4-acryloyl-2-methylpiperazin-1-yl)-6-fluoro-7-(2-fluoro-6-hydroxyphenyl)-1-(2-isopropyl-4-methylpyridin-3-yl)pyrido[2,3-d]pyrimidin-2(1H)-one by Western blotting assay; type: functional, cell-based

## COc1cc2nc(C)nc(N[C@H](C)c3cc(N)cc(C(F)(F)F)c3)c2cc1OCCCCC(=O)N[C@H](C(=O)N1C[C@H](O)C[C@H]1C(=O)NCc1ccc(-c2scnc2C)cc1)C(C)(C)C
MIA PaCa-2 [1]
  inhibition: Active
[2]
  Activity: inactive
K562 [3]
  Activity: Active
MIA PaCa-2 [4]
  IC50: 98 nM
[5]
  Activity: Dose-Dependent Effect
  DC50: 61 nM
[6]
  Activity: Dose-Dependent Effect
  DC50: 50 nM
NCI-H358 [7]
  CI: <1
K562 [8]
  Activity: inactive
[9]
  Emax: > 90%
NCI-H358 [10]
  inhibition in vivo at 30 mg/kg: 78.8%
NCI-H358 [11]
  inhibition: Active
[12]
  Activity: inactive
[13]
  Activity: 89.8%
[14]
  Activity: Dose-Dependent Effect
  DC50: 130 nM
NCI-H358 [15]
  inhibition in vivo at 30 mg/kg: 11.4%
K562 [16]
  inhibition in vivo at 5 mg/kg: 56.3%
SW837
  inhibition: Active
[17]
  Activity: Active
K562 [18]
  Ratio IC50: 3
K562 [19]
  IC50: 535 nM
[20]
  Emax: > 90%
MIA PaCa-2 [21]
  Activity: Active
